Converted amounts (≈) assume the structure as drawn. The source made the active and inactive calls. The rule behind the calls is not given here.

Data set [1] concerns Hemicentrotus pulcherrimus. The experiment in a line: Inhibition of first cleavage in sea urchin embryo after 1.5 hrs by microscopy. It counts as functional.
Data set [2] is described as follows: Toxicity in sea urchin embryo assessed as inhibition of embryo development before morula stage after 24 hrs by microscopy. The note with it: hemicentrotus pulcherrimus.
The subject of data set [3] is Patiria pectinifera. The experiment in a line: Effect on starfish embryo development assessed as abnormal embryo induction at bastula or gastula stage after 24 hrs by lactoorcein staining. It counts as functional.
Data set [4] concerns Patiria pectinifera. The experiment in a line: Inhibition of actin polymerization in starfish during embryogenesis.
Data set [5] can be described thus: Toxicity in rabbit RBC assessed as hemolytic index. It counts as cell-based, Oryctolagus cuniculus. The following applies: erythrocyte.

In the case of `CC(C)CC(=O)C[C@@](C)(O)[C@H]1CC[C@H]2[C@@H]3C[C@H](O[C@@H]4O[C@H](C)C(=O)[C@H](OC5O[C@H](C)[C@@H](OC6O[C@H](C)[C@H](O)[C@H](O)[C@H]6OC6O[C@H](C)[C@H](O)[C@H](O)[C@H]6O)[C@H](O)[C@H]5OC5O[C@H](C)[C@@H](O)[C@H](O)[C@H]5O)[C@H]4O)[C@H]4C[C@@H](OS(=O)(=O)[O-])CC[C@]4(C)C3=CC[C@@]21C.[Na+]` (stereo partly drawn), the ED50 in data set [1] is 15 µg/mL; in the data set with Patiria pectinifera [3], 200 µg/mL. Also, the LD99 in data set [2] came out at 5 µg/mL. In addition, the outcome with Patiria pectinifera [4] was Active. Also, the HI in data set [5] was found to be 17700.
For `CC(C)CC(=O)C[C@@](C)(O)[C@H]1CC[C@H]2[C@@H]3C[C@H](OC4O[C@H](C)[C@@H](O)[C@H](OC5OC[C@@H](OC6O[C@H](CO)[C@H](O)[C@H](O)[C@H]6OC6O[C@H](C)[C@H](O)[C@H](OC7O[C@H](CO)[C@H](O)[C@H](O)[C@H]7O)[C@H]6O)[C@H](O)[C@H]5OC5O[C@H](C)[C@@H](O)[C@H](O)[C@H]5O)[C@H]4O)[C@H]4C[C@@H](OS(=O)(=O)[O-])CC[C@]4(C)C3=CC[C@@]21C.[Na+]` (stereo partly drawn) the same measures were 30 µg/mL, 200 µg/mL, 10 µg/mL, “Active” and 5100.
Turning to `CC(C)C(C)C(=O)C[C@@](C)(O)[C@H]1CC[C@H]2[C@@H]3C[C@H](OC4O[C@H](C)[C@@H](O)[C@H](OC5OC[C@@H](OC6O[C@H](CO)[C@H](O)[C@H](O)[C@H]6OC6O[C@H](C)[C@H](O)[C@H](OC7O[C@H](C)[C@H](O)[C@H](O)[C@H]7O)[C@H]6O)[C@H](O)[C@H]5OC5O[C@H](C)[C@@H](O)[C@H](O)[C@H]5O)[C@H]4O)[C@H]4C[C@@H](OS(=O)(=O)[O-])CC[C@]4(C)C3=CC[C@@]21C.[Na+]` (stereo partly drawn), the ED50 in data set [1] is 5 µg/mL; in the data set on Patiria pectinifera [3] it was 100 µg/mL. Besides, the LD99 in data set [2] was determined as 2 µg/mL. Besides, the result in the data set on Patiria pectinifera [4] was Active. For the same molecule, the HI in data set [5] is listed as 21500.
Take `CC(C)CC(=O)C[C@@](C)(O)[C@H]1CC[C@H]2[C@@H]3C[C@H](OC4O[C@H](C)[C@@H](O)[C@H](OC5OC[C@@H](OC6O[C@H](CO)[C@@H](O)[C@H](O)[C@H]6OC6O[C@H](C)[C@H](O)[C@H](O)[C@H]6O)[C@H](O)[C@H]5OC5O[C@H](C)[C@@H](O)[C@H](O)[C@H]5O)[C@H]4O)[C@H]4C[C@@H](OS(=O)(=O)[O-])CC[C@]4(C)C3=CC[C@@]21C.[Na+]` (stereo partly drawn): the ED50 was 15 µg/mL in data set [1] and 200 µg/mL in the data set on Patiria pectinifera [3]. Also, the LD99 in data set [2] turned out to be 2 µg/mL. Further, the outcome with Patiria pectinifera [4] was Active.
For `CC(C)=CC(=O)C[C@@](C)(O)[C@H]1CC[C@H]2[C@@H]3C[C@H](OC4O[C@H](CO)[C@@H](O)[C@H](OC5O[C@H](C)[C@@H](OC6O[C@H](C)[C@@H](O)[C@H](O)[C@H]6OC6O[C@H](C)[C@H](O)[C@H](O)[C@H]6O)[C@H](O)[C@H]5OC5O[C@H](C)[C@@H](O)[C@H](O)[C@H]5O)[C@H]4O)[C@H]4C[C@@H](OS(=O)(=O)[O-])CC[C@]4(C)C3=CC[C@@]21C.[Na+]` (stereo partly drawn) the same measures were 10 µg/mL, 50 µg/mL, 5 µg/mL and “Active”.
Turning to `CC(=O)[C@H]1CC[C@H]2[C@@H]3C[C@H](OC4O[C@H](C)[C@@H](O)[C@H](OC5OC[C@@H](OC6O[C@H](CO)[C@H](O)[C@H](O)[C@H]6OC6O[C@H](C)[C@H](O)[C@H](O)[C@H]6O)[C@H](O)[C@H]5OC5O[C@H](C)[C@@H](O)[C@H](O)[C@H]5O)[C@H]4O)[C@H]4C[C@@H](OS(=O)(=O)[O-])CC[C@]4(C)C3=CC[C@]12C.[Na+]` (stereo partly drawn), the results for the ED50 (in data set [1]; with Patiria pectinifera [3]) were > 50 µg/mL and 100 µg/mL, respectively. Also, the LD99 in data set [2] is > 50 µg/mL. For the same molecule, the result with Patiria pectinifera [4] was Active. The HI in data set [5] is < 2270.
As for `CC(C)CC(=O)C[C@@](C)(O)[C@H]1CC[C@H]2[C@@H]3C[C@H](OC4O[C@H](C)[C@@H](O)[C@H](OC5OC[C@@H](OC6O[C@H](C)[C@@H](O)[C@H](O)[C@H]6OC6O[C@H](C)[C@H](O)[C@H](O)[C@H]6O)[C@H](O)[C@H]5OC5O[C@H](C)[C@@H](O)[C@H](O)[C@H]5O)[C@H]4O)[C@H]4C[C@@H](OS(=O)(=O)O)CC[C@]4(C)C3=CC[C@@]21C.N` (stereo partly drawn), the ED50 in data set [1] is 15 µg/mL; in the data set on Patiria pectinifera [3], 200 µg/mL. In addition, the LD99 in data set [2] was determined as 5 µg/mL. Also, the result with Patiria pectinifera [4] was Active.
For `CC(C)CC(=O)C[C@@](C)(O)[C@H]1CC[C@H]2[C@@H]3C[C@H](OC4O[C@H](C)[C@@H](O)[C@H](OC5OC[C@@H](OC6O[C@H](C)[C@@H](O)[C@H](O)[C@H]6OC6O[C@H](C)[C@H](O)[C@H](OC7O[C@H](C)[C@H](O)[C@H](O)[C@H]7O)[C@H]6O)[C@H](O)[C@H]5OC5O[C@H](C)[C@@H](O)[C@H](O)[C@H]5O)[C@H]4O)[C@H]4C[C@@H](OS(=O)(=O)[O-])CC[C@]4(C)C3=CC[C@@]21C.[Na+]` (stereo partly drawn) the same measures were 15 µg/mL, 200 µg/mL, 10 µg/mL and “Active”.
For `CC(C)CC(=O)C[C@@](C)(O)[C@H]1CC[C@H]2[C@@H]3C[C@H](OC4O[C@H](CO)[C@@H](O)[C@H](OC5O[C@H](C)[C@@H](OC6O[C@H](C)[C@@H](O)[C@H](O)[C@H]6OC6O[C@H](C)[C@H](O)[C@H](O)[C@H]6O)[C@H](O)[C@H]5OC5O[C@H](C)[C@@H](O)[C@H](O)[C@H]5O)[C@H]4O)[C@H]4C[C@@H](OS(=O)(=O)[O-])CC[C@]4(C)C3=CC[C@@]21C.[Na+]` (stereo partly drawn) the same measures were 5 µg/mL, 50 µg/mL, 5 µg/mL and “Active”.
For `CC(C)=CC(=O)C[C@@](C)(O)[C@H]1CC[C@H]2[C@@H]3C[C@H](OC4O[C@H](C)[C@@H](O)[C@H](OC5OC[C@@H](OC6O[C@H](CO)[C@H](O)[C@H](O)[C@H]6OC6O[C@H](C)[C@H](O)[C@H](O)[C@H]6O)[C@H](O)[C@H]5OC5O[C@H](C)[C@@H](O)[C@H](O)[C@H]5O)[C@H]4O)[C@H]4C[C@@H](OS(=O)(=O)[O-])CC[C@]4(C)C3=CC[C@@]21C.[Na+]` (stereo partly drawn) the same measures were 15 µg/mL, 100 µg/mL, 5 µg/mL and “Active”.
Take `CC(C)=CC(=O)C[C@@](C)(O)[C@H]1CC[C@H]2[C@@H]3C[C@H](OC4O[C@H](C)[C@@H](O)[C@H](OC5OC[C@@H](OC6O[C@H](C)[C@@H](O)[C@H](O)[C@H]6OC6O[C@H](C)[C@H](O)[C@H](O)[C@H]6O)[C@H](O)[C@H]5OC5O[C@H](C)[C@@H](O)[C@H](O)[C@H]5O)[C@H]4O)[C@H]4C[C@@H](O)CC[C@]4(C)C3=CC[C@@]21C` (stereo partly drawn): the ED50 is 10 µg/mL (≈ 8.72 µM) in data set [1] and 100 µg/mL (≈ 87.2 µM) in the data set with Patiria pectinifera [3]. The LD99 in data set [2] stood at 10 µg/mL. In the data set on Patiria pectinifera [4], the result was Active.

The values are drawn from ChEMBL document CHEMBL1151633, “Biological Activities of Asterosaponins With Special Reference to Structure-Activity Relationships” (J Nat Prod, 1984).
